The text below walks through data of ChEMBL document CHEMBL1201862, “PubChem BioAssay data set” (2004).

The source made the active and inactive calls. A value given as a limit tells only on which side of the number the result lay.

A short description of assay [1]: HEK293 Cytotoxicity Assay Measured in Cell-Based System Using Plate Reader - 7071-01_Inhibitor_Dose_CherryPick_Activity_Set2. The format is functional.
Assay [2] concerns HEK293. The assay is described as follows: HEK293T cell cytotoxicity, dose response, cytotoxicity control, ATP luminescence, cherry-pick samples (AID 687005).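 Further: cells exposed to compound for 48 hours.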 The format is functional, cell-based. Conditions: Homo sapiens.
Assay [3] deals with 1-phosphatidylinositol 4,5-bisphosphate phosphodiesterase gamma-1 (Homo sapiens, UniProt P19174). The assay is described as follows: Counterscreen for inhibitors of phospholipase C isozymes (PLC-B3): Fluorescence-based biochemical high throughput dose response assay to identify inhibitors of phospholipase C isozymes (PLC-gamma1).
The target in assay [4] is 1-phosphatidylinositol 4,5-bisphosphate phosphodiesterase beta-3 (Homo sapiens, UniProt Q01970). The assay is described as follows: Fluorescence-based biochemical high throughput dose response assay to identify inhibitors of phospholipase C isozymes (PLC-B3).
The target in assay [5] is T1, Methionyl-tRNA synthetase, putative (Trypanosoma brucei brucei, UniProt Q38C91). The format is functional, Trypanosoma brucei brucei strain 927/4 GUTat10.1.
The nature of assay [6]: Counterscreen for inhibitors of Trypanosoma brucei methionyl tRNA synthetase (MetRS): Luminescence-based cell-based high throughput dose response assay to identify compounds that are cytotoxic to Jurkat human T lymphocyte cells. The assay is classed as functional.
The nature of assay [7]: Late stage counterscreen for inhibitors of Trypanosoma brucei methionyl tRNA synthetase (MetRS): Luminescence-based cell-based high throughput dose response assay to identify compounds that are cytotoxic to Jurkat human T lymphocyte cells. The format is functional.
Assay [8] addresses T1, Methionyl-tRNA synthetase, putative. The format is functional, Trypanosoma brucei brucei strain 927/4 GUTat10.1. This is another data set of the same source.
For assay [9], the target named is Beta-galactosidase (Escherichia coli, UniProt Q8VNN2). The experiment in a line: Dose response counterscreen for EBI2 assay utilizing the enzyme, b-galactosidase. The format is functional.
Assay [10] deals with G-protein coupled receptor 183 (Homo sapiens, UniProt P32249). The experiment in a line: SAR confirmation of small molecule antagonists of the EBI2 receptor via a luminescent beta-arrestin assa. The format is functional.
Assay [11] is described as follows: NIH:OVCAR-3 ovarian cancer cell cytotoxicity, dose response, PAX8 inhibitor project, plate reader, dry powder samples (AID 743044). The format is functional, cell-based.
Assay [12] in a line: IGROV1 ovarian cancer cell cytotoxicity, dose response, PAX8 inhibitor project, plate reader, dry powder samples (AID 743043). To be noted: IGROV-1. The assay is classed as functional, cell-based.
The target in assay [13] is Paired box protein Pax-8 (Homo sapiens, UniProt Q06710). The assay is described as follows: inhibitors of PAX8-driven TPO luciferase reporter, dose response, RMG-I cells, cherry-pick (AID 687027).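 Further: luciferase reporter driven by Pax8 target thyroperoxidase promoter measured by SteadyGlo luminescence.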 The format is functional, cell-based.
Assay [14] in a line: A2780 ovarian cancer cell cytotoxicity, dose response, cytotoxicity control, plate reader, dry powder samples (AID 743046). The format is functional, cell-based.
Assay [15] in a line: IOSE-T80 ovarian epithelial cell cytotoxicity, dose response, cytotoxicity control for PAX8 inhibitor project, plate reader, dry powder samples (AID 743045). The assay is classed as functional, cell-based.
The target of assay [16] is Vasopressin V2 receptor (Homo sapiens, UniProt P30518). The experiment in a line: Late-stage results from the probe development effort to identify antagonists of arginine vasopressin receptor 1a (AVPR1a): fluorescence-based cell-based dose response AVPR2 inhibition counterscreen assay. The assay is classed as functional.
The nature of assay [17]: Late-stage results from the probe development effort to identify antagonists of arginine vasopressin receptor 1a (AVPR1a): fluorescence-based cell-based dose response OXTR inhibition counterscreen assay. The format is functional.
The target in assay [18] is Vasopressin V1b receptor (Homo sapiens, UniProt P47901). The assay is described as follows: Late-stage results from the probe development effort to identify antagonists of arginine vasopressin receptor 1a (AVPR1a): fluorescence-based cell-based dose response AVPR1b inhibition counterscreen assay. The assay is classed as functional.
Assay [19] is described as follows: Late-stage results from the probe development effort to identify antagonists of arginine vasopressin receptor 1a (AVPR1a): fluorescence-based cell-based dose response AVPR1a inhibition assay. The format is functional.

T1 sequence (Q38C91 whole entry): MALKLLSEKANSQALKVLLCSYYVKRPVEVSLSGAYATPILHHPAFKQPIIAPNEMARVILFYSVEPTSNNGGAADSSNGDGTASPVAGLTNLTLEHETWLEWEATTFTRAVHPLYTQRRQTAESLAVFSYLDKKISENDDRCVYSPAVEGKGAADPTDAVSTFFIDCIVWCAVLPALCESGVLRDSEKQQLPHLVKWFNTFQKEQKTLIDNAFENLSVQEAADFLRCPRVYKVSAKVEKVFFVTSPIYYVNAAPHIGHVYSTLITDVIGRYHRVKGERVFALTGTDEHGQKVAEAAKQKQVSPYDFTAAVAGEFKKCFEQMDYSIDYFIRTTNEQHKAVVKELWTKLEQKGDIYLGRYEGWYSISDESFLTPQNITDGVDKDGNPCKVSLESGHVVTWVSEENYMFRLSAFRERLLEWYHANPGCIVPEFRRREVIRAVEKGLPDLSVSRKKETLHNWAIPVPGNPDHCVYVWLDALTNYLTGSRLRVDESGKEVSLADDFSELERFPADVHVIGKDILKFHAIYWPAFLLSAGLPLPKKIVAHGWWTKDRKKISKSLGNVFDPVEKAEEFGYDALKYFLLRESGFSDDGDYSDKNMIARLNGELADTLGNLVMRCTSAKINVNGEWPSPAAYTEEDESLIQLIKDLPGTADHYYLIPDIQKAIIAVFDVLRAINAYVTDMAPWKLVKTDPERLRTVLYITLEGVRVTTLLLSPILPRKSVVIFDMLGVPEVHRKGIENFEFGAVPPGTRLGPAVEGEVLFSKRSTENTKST
Vasopressin V1b receptor, sequence (P47901 whole entry): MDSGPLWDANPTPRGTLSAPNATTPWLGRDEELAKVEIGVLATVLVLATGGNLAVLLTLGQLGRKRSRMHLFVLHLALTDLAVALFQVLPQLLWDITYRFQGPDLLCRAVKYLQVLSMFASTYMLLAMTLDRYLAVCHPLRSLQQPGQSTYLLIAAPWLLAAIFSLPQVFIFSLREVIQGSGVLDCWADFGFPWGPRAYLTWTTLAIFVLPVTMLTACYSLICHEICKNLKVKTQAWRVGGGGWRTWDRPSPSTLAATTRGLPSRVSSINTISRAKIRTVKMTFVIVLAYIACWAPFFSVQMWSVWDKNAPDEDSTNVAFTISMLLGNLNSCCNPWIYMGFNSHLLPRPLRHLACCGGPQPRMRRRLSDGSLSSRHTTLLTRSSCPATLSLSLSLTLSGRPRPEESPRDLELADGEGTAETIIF
1-phosphatidylinositol 4,5-bisphosphate phosphodiesterase beta-3, sequence (Q01970 whole entry): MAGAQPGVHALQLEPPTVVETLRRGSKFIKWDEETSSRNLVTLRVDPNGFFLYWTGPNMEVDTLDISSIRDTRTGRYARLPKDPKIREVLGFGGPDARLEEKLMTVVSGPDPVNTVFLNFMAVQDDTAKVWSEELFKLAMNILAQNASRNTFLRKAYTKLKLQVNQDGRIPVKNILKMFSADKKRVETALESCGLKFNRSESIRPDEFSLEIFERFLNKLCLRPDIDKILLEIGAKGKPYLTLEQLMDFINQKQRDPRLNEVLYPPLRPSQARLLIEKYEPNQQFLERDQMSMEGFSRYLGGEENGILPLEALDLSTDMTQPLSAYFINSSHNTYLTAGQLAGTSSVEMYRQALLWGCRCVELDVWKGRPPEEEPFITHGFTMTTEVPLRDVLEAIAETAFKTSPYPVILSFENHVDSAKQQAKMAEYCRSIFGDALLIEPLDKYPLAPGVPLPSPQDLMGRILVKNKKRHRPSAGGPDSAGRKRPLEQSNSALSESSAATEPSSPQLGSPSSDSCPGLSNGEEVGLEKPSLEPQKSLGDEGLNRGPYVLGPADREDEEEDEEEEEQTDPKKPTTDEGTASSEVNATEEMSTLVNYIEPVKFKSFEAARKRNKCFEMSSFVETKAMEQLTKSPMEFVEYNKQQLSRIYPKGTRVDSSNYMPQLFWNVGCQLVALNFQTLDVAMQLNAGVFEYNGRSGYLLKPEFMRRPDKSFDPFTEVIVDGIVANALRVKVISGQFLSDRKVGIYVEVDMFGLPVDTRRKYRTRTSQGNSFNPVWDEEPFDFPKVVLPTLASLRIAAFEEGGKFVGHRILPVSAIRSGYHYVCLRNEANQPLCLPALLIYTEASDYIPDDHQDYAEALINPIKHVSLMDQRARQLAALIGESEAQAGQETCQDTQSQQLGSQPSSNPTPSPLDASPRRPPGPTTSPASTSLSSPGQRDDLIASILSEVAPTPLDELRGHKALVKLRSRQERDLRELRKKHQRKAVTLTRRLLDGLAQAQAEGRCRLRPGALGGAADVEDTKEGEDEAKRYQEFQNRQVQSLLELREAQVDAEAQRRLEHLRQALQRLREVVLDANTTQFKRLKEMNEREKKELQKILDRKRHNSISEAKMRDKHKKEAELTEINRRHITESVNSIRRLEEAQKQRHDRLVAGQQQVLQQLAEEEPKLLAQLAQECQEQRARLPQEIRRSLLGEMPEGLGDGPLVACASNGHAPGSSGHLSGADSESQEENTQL
1-phosphatidylinositol 4,5-bisphosphate phosphodiesterase gamma-1, sequence (P19174 whole entry): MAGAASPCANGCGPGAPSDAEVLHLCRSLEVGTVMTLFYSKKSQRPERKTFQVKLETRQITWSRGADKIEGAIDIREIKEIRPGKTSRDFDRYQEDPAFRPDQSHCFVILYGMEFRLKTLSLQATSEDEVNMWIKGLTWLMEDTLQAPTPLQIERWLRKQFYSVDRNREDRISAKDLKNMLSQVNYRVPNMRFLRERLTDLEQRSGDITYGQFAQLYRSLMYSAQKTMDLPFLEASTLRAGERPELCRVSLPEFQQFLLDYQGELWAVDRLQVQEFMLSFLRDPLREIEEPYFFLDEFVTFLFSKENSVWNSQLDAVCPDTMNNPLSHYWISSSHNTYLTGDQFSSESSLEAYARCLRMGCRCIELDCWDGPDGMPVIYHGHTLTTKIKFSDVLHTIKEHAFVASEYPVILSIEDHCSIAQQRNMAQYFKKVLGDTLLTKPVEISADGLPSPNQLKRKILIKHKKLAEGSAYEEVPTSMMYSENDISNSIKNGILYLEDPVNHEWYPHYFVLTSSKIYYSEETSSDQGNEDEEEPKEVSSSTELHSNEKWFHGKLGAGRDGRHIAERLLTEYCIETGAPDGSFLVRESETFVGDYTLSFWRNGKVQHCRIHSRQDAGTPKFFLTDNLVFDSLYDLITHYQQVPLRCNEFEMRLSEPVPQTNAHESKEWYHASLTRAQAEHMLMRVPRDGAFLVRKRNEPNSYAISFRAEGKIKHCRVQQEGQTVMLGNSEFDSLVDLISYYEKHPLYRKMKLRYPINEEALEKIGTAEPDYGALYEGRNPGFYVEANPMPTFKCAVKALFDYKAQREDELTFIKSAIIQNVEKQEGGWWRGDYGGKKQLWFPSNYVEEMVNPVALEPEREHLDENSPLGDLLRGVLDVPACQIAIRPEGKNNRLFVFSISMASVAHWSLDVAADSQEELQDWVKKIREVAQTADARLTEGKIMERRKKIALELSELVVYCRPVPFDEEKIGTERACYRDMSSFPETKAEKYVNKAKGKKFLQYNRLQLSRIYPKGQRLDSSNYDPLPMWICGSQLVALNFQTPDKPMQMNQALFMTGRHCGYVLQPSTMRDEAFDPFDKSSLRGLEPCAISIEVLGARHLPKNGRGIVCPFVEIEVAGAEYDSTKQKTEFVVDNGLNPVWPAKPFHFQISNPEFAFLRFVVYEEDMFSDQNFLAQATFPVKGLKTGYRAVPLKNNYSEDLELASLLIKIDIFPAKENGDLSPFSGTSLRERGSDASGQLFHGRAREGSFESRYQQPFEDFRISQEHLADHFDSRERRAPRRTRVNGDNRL
Paired box protein Pax-8, sequence (Q06710 whole entry): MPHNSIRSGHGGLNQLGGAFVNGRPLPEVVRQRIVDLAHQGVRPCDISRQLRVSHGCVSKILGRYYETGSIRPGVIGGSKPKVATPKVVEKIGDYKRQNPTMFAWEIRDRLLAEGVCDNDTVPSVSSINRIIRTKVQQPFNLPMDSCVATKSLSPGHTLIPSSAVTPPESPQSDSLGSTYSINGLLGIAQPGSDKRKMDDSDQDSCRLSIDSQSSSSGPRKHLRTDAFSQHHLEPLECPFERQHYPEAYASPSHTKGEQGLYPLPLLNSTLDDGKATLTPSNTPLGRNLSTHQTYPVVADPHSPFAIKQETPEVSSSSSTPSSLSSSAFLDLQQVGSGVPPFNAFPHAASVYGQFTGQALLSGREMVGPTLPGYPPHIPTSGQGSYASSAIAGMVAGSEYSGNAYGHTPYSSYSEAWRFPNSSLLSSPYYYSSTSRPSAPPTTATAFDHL
Vasopressin V2 receptor, sequence (P30518 whole entry): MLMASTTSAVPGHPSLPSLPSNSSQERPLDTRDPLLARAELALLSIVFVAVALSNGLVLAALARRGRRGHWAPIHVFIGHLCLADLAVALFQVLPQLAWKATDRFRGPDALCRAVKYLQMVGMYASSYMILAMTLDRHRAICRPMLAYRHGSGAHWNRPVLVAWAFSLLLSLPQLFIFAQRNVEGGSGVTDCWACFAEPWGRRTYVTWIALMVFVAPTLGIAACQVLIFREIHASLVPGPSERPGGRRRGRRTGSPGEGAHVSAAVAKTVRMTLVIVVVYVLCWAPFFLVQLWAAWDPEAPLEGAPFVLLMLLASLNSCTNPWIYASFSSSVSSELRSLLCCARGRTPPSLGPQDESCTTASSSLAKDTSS
G-protein coupled receptor 183, sequence (P32249 whole entry): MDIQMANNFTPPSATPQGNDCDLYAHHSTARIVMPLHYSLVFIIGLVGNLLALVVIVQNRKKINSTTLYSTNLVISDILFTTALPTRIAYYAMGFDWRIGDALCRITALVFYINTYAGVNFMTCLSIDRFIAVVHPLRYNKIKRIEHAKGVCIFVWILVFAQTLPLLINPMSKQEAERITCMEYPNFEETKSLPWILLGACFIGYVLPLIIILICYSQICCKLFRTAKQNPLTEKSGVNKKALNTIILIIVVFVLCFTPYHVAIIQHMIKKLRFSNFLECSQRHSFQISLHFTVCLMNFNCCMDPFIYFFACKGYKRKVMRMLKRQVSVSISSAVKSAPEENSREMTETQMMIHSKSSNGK

For the molecule `COc1ccc(-n2cc(CNCCc3nc(C)cc(C)n3)c(-c3ccccc3Cl)n2)cc1`, the concentration at half-maximal activity (AC50) in assay [1] and in assay [2] was 11.4 µM (active) in each case.

Consider `NC(=O)CC(NC(=O)Cc1cccc2ccccc12)c1ccc(N2CCCCCC2)c([N+](=O)[O-])c1` (centres undefined), for which the IC50 in [3] and in assay [4] was > 122 µM (inactive) throughout.

As to `Clc1ccc(-c2nnc(SCc3nc4ccccc4[nH]3)o2)c(Cl)c1`, the 50% inhibitory concentration (IC50) in assay [5] was 401 nM (active); in assay [6], 83.3 µM (inactive); in [7], > 83.3 µM (inactive); in assay [8], 802 nM (active).

`O=C(/C=C/c1ccc(Br)cc1)N1CCN(Cc2ccccc2)CC1`: the IC50 was > 80 µM (inactive) in assay [9] and 2.8 nM (active) in assay [10].

As for `C[C@H](CO)N1C[C@H](C)[C@H](CN(C)Cc2ccccc2)OCCCC[C@H](C)Oc2ccc(NC(=O)Nc3ccc(C(F)(F)F)cc3)cc2C1=O`, the half-maximal activity concentration (AC50) is 17.6 µM (active) in [11]; 26.9 µM (active) in assay [12]; 4.95 µM (active) in [13]; 41.4 µM (active) in [14]; 50 µM (active) in [15].

Regarding `COc1cccc(N(CC2CC2)C(=O)N2CCN(c3ccccc3C)CC2)c1`, the IC50 in assay [16] is 20.6 µM (inactive); in [17] it was 20.6 µM (inactive); in assay [18] it was 12.4 µM (inactive); in assay [19] it was 57 nM (active).
